Measurements taken from ChEMBL document CHEMBL1135480, “Design and quantitative structure-activity relationship of 3-amidinobenzyl-1H-indole-2-carboxamides as potent, nonchiral, and selective inhibitors of blood coagulation factor Xa” (J Med Chem, 2002).
Values joined by “and” are separate entries in the source; they are usually repeats but may differ in a detail not shown here. Equal entries are not always repeated.

Biological target: Coagulation factor X (Homo sapiens, UniProt P00742)
Assay: Inhibition of Coagulation factor Xa

Chain of Coagulation factor X (P00742 41-179 limits assumed): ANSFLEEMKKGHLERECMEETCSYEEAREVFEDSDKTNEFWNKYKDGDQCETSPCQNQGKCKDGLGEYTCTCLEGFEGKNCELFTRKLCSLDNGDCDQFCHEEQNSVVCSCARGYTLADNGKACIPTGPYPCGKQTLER
Chain of Coagulation factor X (P00742 235-488 limits assumed): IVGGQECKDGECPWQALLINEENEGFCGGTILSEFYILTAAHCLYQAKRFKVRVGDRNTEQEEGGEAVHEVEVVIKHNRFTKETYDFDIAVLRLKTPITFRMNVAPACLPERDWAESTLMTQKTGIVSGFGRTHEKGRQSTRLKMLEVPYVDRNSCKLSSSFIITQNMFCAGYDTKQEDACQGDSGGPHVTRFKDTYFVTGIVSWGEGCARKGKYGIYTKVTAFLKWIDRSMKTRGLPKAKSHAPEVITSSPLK

Ki | Structure (SMILES)
26 nM and 19 nM | N=C(N)c1cccc(CNC(=O)c2cc3ccccc3n2Cc2cccc(C(=N)N)c2)c1
300 nM | N=C(N)c1cccc(Cn2c(C(=O)NCc3ccnc4ccccc34)cc3c(O)cccc32)c1
610 nM | CN1CCC([C@@H](NC(=O)c2cc3ccccc3n2Cc2cccc(C(=N)N)c2)c2ccc3cc(Cl)ccc3c2)CC1
1360 nM | COc1ccc(CNC(=O)c2cc3c(O)cccc3n2Cc2cccc(C(=N)N)c2)cc1
84 nM | C[N+](C)(C)c1ccc(CNC(=O)c2cc3c(OCc4ccccc4)cccc3n2Cc2cccc(C(=N)N)c2)cc1
318 nM | N=C(N)c1cccc(Cn2c(C(=O)NCCNc3cccc4ccccc34)cc3c(O)cccc32)c1
1760 nM | COc1ccc2cc(C(=O)NCc3ccc([N+](C)(C)C)cc3)n(Cc3cccc(C(=N)N)c3)c2c1
170 nM | Cc1c(C(=O)NCc2cc[n+](C)cc2)n(Cc2cccc(C(=N)N)c2)c2ccccc12
96 nM | Cc1cccc2c1cc(C(=O)NCc1cccc3ccccc13)n2Cc1cccc(C(=N)N)c1
325 nM | Cc1cccc2c1cc(C(=O)NCc1cccc(-c3ccccc3)c1)n2Cc1cccc(C(=N)N)c1
134 nM | C[N+](C)(C)c1ccc(CNC(=O)c2cc3cc(Br)ccc3n2Cc2cccc(C(=N)N)c2)cc1
4200 nM | CCOC(=O)c1cc2ccccc2n1Cc1cccc(C(=N)N)c1
1110 nM | N=C(N)c1cccc(Cn2c(C(=O)NCC3CCCCC3)cc3c(O)cccc32)c1
5310 nM | COc1ccc2c(cc(C(=O)NCc3ccncc3)n2Cc2cccc(C(=N)N)c2)c1OC
16 nM and 14 nM | Cc1cccc2c1cc(C(=O)NCc1ccc([N+](C)(C)C)cc1)n2Cc1cccc(C(=N)N)c1
10000 nM | N=C(N)c1cccc(Cn2c(C(=O)NCc3cccc(C(=O)O)c3)cc3c(O)cccc32)c1
2990 nM | CSC(=O)c1cc2c(O)cccc2n1Cc1cccc(C(=N)N)c1
7030 nM | N=C(N)c1cccc(Cn2c(C(=O)NC(c3ccccc3)c3ccncc3)cc3ccccc32)c1 (centres undefined)
7910 nM | Cc1cccc2c1cc(C(N)=O)n2Cc1cccc(C(=N)N)c1
51 nM | N=C(N)c1cccc(CNC(=O)c2cc3cc(N)ccc3n2Cc2cccc(C(=N)N)c2)c1
2040 nM | COC(=O)c1cccc(CNC(=O)c2cc3c(O)cccc3n2Cc2cccc(C(=N)N)c2)c1
183 nM | COc1cccc2c1cc(C(=O)NCc1ccc(O)cc1)n2Cc1cccc(C(=N)N)c1

Ki | Structure (SMILES)
720 nM | N=C(N)c1cccc(Cn2c(C(=O)NCc3cccc(F)c3)cc3c(O)cccc32)c1
170 nM | COC(=O)CN(Cc1cc[n+](C)cc1)C(=O)c1cc2ccccc2n1Cc1cccc(C(=N)N)c1
92 nM | CC(NC(=O)c1cc2ccccc2n1Cc1cccc(C(=N)N)c1)c1cc[n+](C)cc1 (centres undefined)
1560 nM | N=C(N)c1cccc(Cn2c(C(=O)NCCc3ccc(Cl)cc3)cc3c(O)cccc32)c1
2060 nM | N=C(N)c1cccc(Cn2c(C(=O)NCc3ccc4ccc5cccc6ccc3c4c56)cc3c(O)cccc32)c1
245 nM | Cc1c(F)ccc2c1cc(C(=O)NCc1ccc([N+](C)(C)Cc3ccccc3)cc1)n2Cc1cccc(C(=N)N)c1
173 nM | Cc1cccc2c1cc(C(=O)NCc1ccnc3ccccc13)n2Cc1cccc(C(=N)N)c1
141 nM | C=CC[N+](C)(C)c1ccc(CNC(=O)c2cc3cc(F)ccc3n2Cc2cccc(C(=N)N)c2)cc1
304 nM | N=C(N)c1cccc(Cn2c(C(=O)NCc3cccc4ccccc34)c(Cl)c3ccccc32)c1
3520 nM | CN(C)c1ccc(CNC(=O)c2cc3cc(F)ccc3n2Cc2cccc(C(=N)N)c2)cc1
360 nM | C[n+]1ccc(CNC(=O)c2cc3cc(F)ccc3n2Cc2cccc(C(=N)N)c2)cc1
193 nM | COc1cc(CNC(=O)c2cc3c(O)cccc3n2Cc2cccc(C(=N)N)c2)cc(OC)c1
144 nM | C[N+](C)(C)c1ccc(CNC(=O)c2cc3cc([N+](=O)[O-])ccc3n2Cc2cccc(C(=N)N)c2)cc1
8800 nM | COC(=O)c1c(C)c2ccccc2n1Cc1cccc(C(=N)N)c1
970 nM | COc1cccc2c1cc(C(=O)NCCc1ccc(O)cc1)n2Cc1cccc(C(=N)N)c1
25 nM | Cc1cccc2c1cc(C(=O)NCC1CCN(C(=N)N)CC1)n2Cc1cccc(C(=N)N)c1
191 nM | N=C(N)c1cccc(Cn2c(C(=O)NCc3cc(F)cc(F)c3)cc3c(O)cccc32)c1
3900 nM | C[n+]1cccc(CC(NC(=O)c2cc3ccccc3n2Cc2cccc(C(=N)N)c2)C(N)=O)c1 (centres undefined)
150 nM | C[n+]1ccc(CNC(=O)c2cc3ccccc3n2Cc2cccc(C(=N)N)c2)cc1
918 nM | N=C(N)c1cccc(Cn2c(C(=O)NCCc3ccc(Cl)c(Cl)c3)cc3c(O)cccc32)c1
77 nM | N=C(N)c1cccc(CNC(=O)c2cc3cc(O)ccc3n2Cc2cccc(C(=N)N)c2)c1
3330 nM | N=C(N)c1cccc(Cn2c(C(=O)NCc3ccccn3)cc3c(O)cccc32)c1

Ki | Structure (SMILES)
45 nM | Cc1cccc2c1cc(C(=O)NCC1CCC(C(=N)N)CC1)n2Cc1cccc(C(=N)N)c1 (centres undefined)
14500 nM | Cc1cccc2c1cc(C(=O)NCc1cc[n+]([O-])cc1)n2Cc1cccc(C(=N)N)c1
66 nM and 90 nM | C[N+](C)(C)c1ccc(CNC(=O)c2cc3cc(F)ccc3n2Cc2cccc(C(=N)N)c2)cc1
4830 nM | C[C@H](NC(=O)c1cc2cc(OCc3ccccc3)ccc2n1Cc1cccc(C(=N)S)c1)c1ccccc1
13 nM | Cc1cc(C)cc(CNC(=O)c2c(Br)c3ccccc3n2Cc2cccc(C(=N)N)c2)c1
62 nM | COc1cccc2c1cc(C(=O)NCc1ccc([N+](C)(C)C)cc1)n2Cc1cccc(C(=N)N)c1
7050 nM | N=C(N)c1cccc(Cn2c(C(=O)NNS(=O)(=O)c3ccccc3)cc3c(O)cccc32)c1
1310 nM | Cc1cccc2c1cc(C(=O)NCc1ccc(N(C)C)cc1)n2Cc1cccc(C(=N)N)c1
103 nM | CC[N+](C)(C)c1ccc(CNC(=O)c2cc3cc(F)ccc3n2Cc2cccc(C(=N)N)c2)cc1
1610 nM | Cc1cccc2c1cc(C(=O)NCc1ccc(O)cc1)n2Cc1cccc(C(=N)N)c1
2380 nM | N=C(N)c1cccc(Cn2c(C(=O)NCC(=O)Nc3ccc4ccccc4c3)cc3c(O)cccc32)c1
1720 nM | N=C(N)c1cccc(Cn2c(C(=O)NCc3ccc4ccccc4c3)cc3c(O)cccc32)c1
76 nM | C#CC[N+](C)(C)c1ccc(CNC(=O)c2cc3cc(F)ccc3n2Cc2cccc(C(=N)N)c2)cc1
110 nM | COc1cccc2c1cc(C(=O)NCc1ccc(-c3cc[n+](C)cc3)cc1)n2Cc1cccc(C(=N)N)c1
1200 nM | N=C(N)c1cccc(Cn2c(C(=O)NCc3ccccc3Cl)cc3c(O)cccc32)c1
274 nM | N=C(N)c1cccc(Cn2c(C(=O)NCC34C[C@H]5C[C@@H](C3)C[C@@H](C4)C5)cc3c(O)cccc32)c1
5650 nM | N=C(N)c1cccc(Cn2c(C(N)=O)cc3ccccc32)c1
840 nM | N=C(N)c1cccc(Cn2c(C(=O)NCCc3ccc(Cl)cc3Cl)cc3c(O)cccc32)c1
50 nM | C[n+]1ccc(CNC(=O)c2cc3c(O)cccc3n2Cc2cccc(C(=N)N)c2)c2ccccc21
24 nM | C[N+](C)(C)c1ccc(CNC(=O)c2cc3c(Br)cccc3n2Cc2cccc(C(=N)N)c2)cc1
68 nM | N=C(N)c1cccc(Cn2c(C(=O)NCc3cccc4ccccc34)cc3c(O)cccc32)c1
160 nM | COc1cccc2c1cc(C(=O)NCCc1cc[n+](C)cc1)n2Cc1cccc(C(=N)N)c1

Ki | Structure (SMILES)
841 nM | N=C(N)c1cccc(Cn2c(C(=O)NCc3ccc(Cl)c(Cl)c3)cc3c(O)cccc32)c1
476 nM | N=C(N)c1cccc(Cn2c(C(=O)NCc3cccc(C(F)(F)F)c3)cc3c(O)cccc32)c1
117 nM | N=C(N)c1cccc(Cn2c(C(=O)NCc3cccc(Br)c3)cc3c(O)cccc32)c1
94 nM | COc1ccc2c(c1)cc(C(=O)NCc1ccc([N+](C)(C)C)cc1)n2Cc1cccc(C(=N)N)c1
133 nM | N=C(N)c1cccc(CNC(=O)c2cc3cc(OCc4ccccc4)ccc3n2Cc2cccc(C(=N)N)c2)c1
61 nM | N=C(N)c1cccc(COC(=O)c2cc3cc(OCc4ccccc4)ccc3n2Cc2cccc(C(=N)N)c2)c1
500 nM | CCN(Cc1cc[n+](C)cc1)C(=O)c1cc2ccccc2n1Cc1cccc(C(=N)N)c1
1310 nM | C[N+]1(C)CCC(C(NC(=O)c2cc3ccccc3n2Cc2cccc(C(=N)N)c2)c2ccc3cc(Cl)ccc3c2)CC1 (centres undefined)
7160 nM | N=C(N)c1cccc(Cn2c(C(N)=O)cc3c(O)cccc32)c1
44 nM | Cc1cccc2c1cc(C(=O)OCc1cccc(C(=N)N)c1)n2Cc1cccc(C(=N)N)c1
240 nM | N=C(N)c1cccc(Cn2c(C(=O)NCc3cccc(C(N)=O)c3)cc3ccccc32)c1
2030 nM | N=C(N)c1cccc(Cn2c(C(=O)NCc3ccccc3)cc3c(O)cccc32)c1
1300 nM | C[n+]1ccc(CCNC(=O)c2cc3ccccc3n2Cc2cccc(C(=N)N)c2)cc1
1630 nM | N=C(N)c1cccc(Cn2c(C(=O)NCCc3ccc(Br)cc3)cc3c(O)cccc32)c1
308 nM | COc1cccc(CNC(=O)c2cc3c(O)cccc3n2Cc2cccc(C(=N)N)c2)c1
85 nM | N=C(N)c1cccc(Cn2c(C(=O)NCc3cc(Cl)cc(Cl)c3)c(Br)c3ccccc32)c1
600 nM | C[n+]1ccc(CNC(=O)c2cc3ccccc3n2Cc2ccc(C(=N)N)cc2)cc1
180 nM | N=C(N)c1cccc(Cn2c(C(=O)NCc3cccc(NC(N)=O)c3)cc3c(O)cccc32)c1
42 nM | N=C(N)c1cccc(Cn2c(C(=O)NCc3cccc(I)c3)cc3c(O)cccc32)c1
226 nM | C[N+](C)(C)c1ccc(CNC(=O)c2cc3cc(S(C)(=O)=O)ccc3n2Cc2cccc(C(=N)N)c2)cc1
3600 nM | N=C(N)c1cccc(Cn2c(C(=O)NCc3ccc(Cl)cc3)cc3ccccc32)c1
400 nM | C[N+](C)(C)c1ccc(CNC(=O)c2cc3ccccc3n2Cc2cccc(C(=N)N)c2)cc1

Structure (SMILES) | Ki
COC(=O)c1c(C(=O)OC)n(Cc2cccc(C(=N)N)c2)c2ccccc12 | 7500 nM
N=C(N)c1cccc(CNC(=O)c2cn(Cc3cccc(C(=N)N)c3)c3ccccc23)c1 | 1230 nM
CN(C)c1ccc(CNC(=O)c2cn(Cc3cccc(C(=N)N)c3)c3ccccc23)cc1 | 2190 nM
COC(=O)c1c(C(=O)NCc2cc[n+](C)cc2)n(Cc2cccc(C(=N)N)c2)c2ccccc12 | 350 nM
N=C(N)c1ccc(CNC(=O)c2cn(Cc3cccc(C(=N)N)c3)c3ccccc23)cc1 | 1120 nM
C[N+](C)(C)c1ccc(CNC(=O)c2cn(Cc3cccc(C(=N)N)c3)c3ccccc23)cc1 | 1820 nM
